Laboratory results: PMC10709440, “High-throughput ligand profile characterization in novel cell lines expressing seven heterologous insect olfactory receptors for the detection of volatile plant biomarkers” (Scientific Reports, 2023)
Read-outs that look alike come from different tables or passages of the source.

Columns and labels:
[1] = biological target: T1, Drosophila OR47a (Drosophila melanogaster, UniProt P81921); assay: Calcium ion fluorescence (GCaMP6) assay, OR47a stable HEK293 cell line; format: cell-based; parameters: key to DF norm AVERAGE OR47a: VOC ∆F divided by the plate's mean ∆F response to 50 µM VUAA1; settings: for activation at 1 µM / activation at 10 µM / activation at 100 µM: HEK293, read-out: OR47a response (VUAA1-normalized response); for Average response: mean of biological replicates
T1 construct: expressed in transfected cells
T1 sequence (P81921 1-385): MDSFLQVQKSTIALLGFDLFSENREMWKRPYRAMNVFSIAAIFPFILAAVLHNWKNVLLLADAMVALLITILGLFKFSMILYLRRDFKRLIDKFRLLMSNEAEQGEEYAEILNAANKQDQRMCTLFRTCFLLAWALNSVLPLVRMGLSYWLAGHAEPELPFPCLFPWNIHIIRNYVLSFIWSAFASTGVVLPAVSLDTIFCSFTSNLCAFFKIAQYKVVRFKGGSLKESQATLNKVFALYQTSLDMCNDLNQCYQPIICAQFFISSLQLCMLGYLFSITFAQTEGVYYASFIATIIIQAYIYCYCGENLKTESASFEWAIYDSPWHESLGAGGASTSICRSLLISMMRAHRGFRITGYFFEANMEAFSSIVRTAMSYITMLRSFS
T1 sequence (Q9VNB5 1-486 partner): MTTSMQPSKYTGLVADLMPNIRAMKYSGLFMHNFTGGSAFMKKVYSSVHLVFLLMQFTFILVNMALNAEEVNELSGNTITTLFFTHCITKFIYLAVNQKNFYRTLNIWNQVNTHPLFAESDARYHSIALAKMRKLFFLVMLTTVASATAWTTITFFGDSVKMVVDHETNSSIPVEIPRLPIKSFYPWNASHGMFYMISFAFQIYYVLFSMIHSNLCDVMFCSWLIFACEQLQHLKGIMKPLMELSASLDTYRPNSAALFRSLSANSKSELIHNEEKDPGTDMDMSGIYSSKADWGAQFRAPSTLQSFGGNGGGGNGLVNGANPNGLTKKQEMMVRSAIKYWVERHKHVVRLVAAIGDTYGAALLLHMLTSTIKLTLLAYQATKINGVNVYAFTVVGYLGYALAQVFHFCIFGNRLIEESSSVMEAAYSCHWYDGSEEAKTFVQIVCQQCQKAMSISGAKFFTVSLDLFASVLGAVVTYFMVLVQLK
Protocol: (§1) These VUAA1 normalized ∆F values were used to compare the different receptors and ligands.
(§2) The concentration-dependent effect of the reference ligands on their cognate cell lines was examined in more detail. Twelve different ligand concentrations were measured on each cell line in an overall 0.01 μM to 100 μM concentration range with 5 repetitions with three technical replicates each time.
(§3) Twelve thousand to 18,000 cells were plated into each well of a black wall, transparent bottom 384-well microplate (Greiner) 48 h or 72 h before the measurements and were simultaneously treated with 1 μg/mL doxycycline. […] The plate has 24 columns, thus we could record responses in up to eight different cell lines in each plate. On the day of the experiment, the growth medium was replaced with 20 µL assay buffer/well (140 mM NaCl, 5 mM KCl, 2 mM CaCl2, 1 mM MgCl2, 5 mM HEPES-Na, 20 mM glucose, pH 7.3, 340 mOsm). […] Baseline fluorescence (F0) was recorded for 5 s, after which 7 µL VOC buffer (140 mM NaCl, 5 mM KCl, 2 mM CaCl2, 1 mM MgCl2, 5 mM HEPES-Na, 31 mM glucose, 0.1% DMSO, pH 7.3, 340 mOsm) was injected into each well in one row and the fluorescence response was recorded for an additional 30 s, at a rate of one read/sec. VOC solutions (VOC buffer with 4× concentration of the final measured VOC concentration, 9 µL/well was injected) were measured on the same wells in a second round with the same protocol. Each individual concentration of a specific VOC sample was recorded in three wells for the same cell line on the same microplate. The raw data were exported in xls file format, F0 and FMAX values, and the fluorescence intensity changes (∆F) were calculated in Excel (Microsoft) (Supplementary file Data summary.xlsx) using the following equation: ΔF=FMAX-F0/F0 (see also Fig. 1C). On each plate, we recorded the response of each cell line to 50 µM VUAA1. The average of these ∆F values of each cell line were used to calculate the VUAA1-normalized values for the rest of the plate, by dividing VOC response ∆F values by the average VUAA1 response ∆F value of the corresponding OR cell line. Each VOC-OR combination was measured three times as technical replicates. […] The average of these replicates were used as one ∆F and VUAA1-normalized ∆F in the following analysis.
(§4) In the next rows we tested the reference VOCs (or other VOCs known to activate the corresponding cell lines), in order to test if all cell lines are responsive. The remaining rows were used to test VOCs with unknown effect.
(§5) The recorded FMAX, F0, ∆F, VUAA1-normalized ∆F values, as well as the OR name, the name of the tested sample, and the final concentration for each well were copied into supplementary file Data summary.xlsx, that was used to summarize all the plates recorded. Here, the averages of the measurements were calculated for each receptor-VOC-concentration combination.

[2] = biological target: T2, Drosophila OR98a (Drosophila melanogaster, UniProt Q9VAZ3); assay: Calcium ion fluorescence (GCaMP6) assay, OR98a stable HEK293 cell line; format: cell-based; parameters: key to DF norm AVERAGE OR98a: VOC ∆F divided by the plate's mean ∆F response to 50 µM VUAA1
T2 construct: expressed in transfected cells
T2 sequence (Q9VAZ3 1-397): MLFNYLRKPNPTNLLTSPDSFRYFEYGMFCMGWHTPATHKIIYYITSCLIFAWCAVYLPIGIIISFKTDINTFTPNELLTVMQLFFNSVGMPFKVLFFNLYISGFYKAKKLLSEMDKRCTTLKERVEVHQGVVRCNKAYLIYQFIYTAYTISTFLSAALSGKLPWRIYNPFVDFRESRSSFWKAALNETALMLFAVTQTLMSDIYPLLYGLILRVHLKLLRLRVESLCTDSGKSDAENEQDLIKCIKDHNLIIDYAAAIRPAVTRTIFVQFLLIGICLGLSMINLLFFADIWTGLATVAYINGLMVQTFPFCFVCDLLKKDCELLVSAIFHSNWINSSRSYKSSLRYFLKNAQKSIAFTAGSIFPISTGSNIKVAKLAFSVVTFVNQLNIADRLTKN
T2 sequence (Q9VNB5 1-486 partner): T1 sequence (Q9VNB5 1-486 partner)
Protocol: as §1, §2, §3, §4, §5

[3] = OR47a cell line, odorant cc. 1 µM
[4] = OR47a cell line, odorant cc. 10 µM
[5] = OR47a cell line, odorant cc. 100 µM
[6] = concentration 1, normalized fluorescence change, values below 0.05 threshold given as 0
[7] = concentration 10, normalized fluorescence change, values below 0.05 threshold given as 0
[8] = concentration 100, normalized fluorescence change, values below 0.05 threshold given as 0
[9] = HEK293, read-out: Average response
[10] = HEK293, read-out: OR98a response (VUAA1-normalized response)
[11] = ligand concentration 1 (unit not given), threshold 0.05, below shown as 0
[12] = ligand concentration 10 (unit not given), threshold 0.05, below shown as 0
[13] = ligand concentration 100 (unit not given), threshold 0.05, below shown as 0

SMILES | activation at 1 µM [1] | activation at 10 µM [1] | activation at 100 µM [1] | Average response [1, 3] | Average response [1, 4] | Average response [1, 5] | DF norm AVERAGE OR47a [1, 6] | DF norm AVERAGE OR47a [1, 7] | DF norm AVERAGE OR47a [1, 8] | activation at 1 µM [2, 9] | activation at 10 µM [2, 9] | activation at 100 µM [2, 9] | activation at 1 µM [2, 10] | activation at 10 µM [2, 10] | activation at 100 µM [2, 10] | DF norm AVERAGE OR98a [2, 6] | DF norm AVERAGE OR98a [2, 7] | DF norm AVERAGE OR98a [2, 8] | DF norm AVERAGE OR47a [1, 11] | DF norm AVERAGE OR47a [1, 12] | further results
CCCCCO [1-pentanol] | 0% | 0% | 0% | 0.00 | 0.00 | 0.00 | 0 | 0 | 0 | 0% | 2.81% | 0% | 0% | 0% | 0% | 0 | 0 | 0 | – | – | –
Cc1ccccc1C [o-xylene] | – | – | – | 0.00 | 0.00 | 0.00 | – | – | – | 0% | 0% | 0% | – | – | – | – | – | – | 0 | 0 | OR47a response (VUAA1-normalized) at 1 μM ([1]; OR47a cell line, VOC concentration 1 μM): 0.00; OR47a response (VUAA1-normalized) at 10 μM ([1]; OR47a cell line, VOC concentration 10 μM): 0.00; OR47a response (VUAA1-normalized) at 100 μM ([1]; OR47a cell line, VOC concentration 100 μM): 0.00; DF norm AVERAGE OR47a [1, 13]: 0; OR98a response (VUAA1-normalized) at 1 μM ([2]; OR98a cell line, VOC concentration 1 μM): 0.00; OR98a response (VUAA1-normalized) at 10 μM ([2]; OR98a cell line, VOC concentration 10 μM): 0.00; OR98a response (VUAA1-normalized) at 100 μM ([2]; OR98a cell line, VOC concentration 100 μM): 0.00; DF norm AVERAGE OR98a [2, 11]: 0; DF norm AVERAGE OR98a [2, 12]: 0; DF norm AVERAGE OR98a [2, 13]: 0
CCc1ccccc1 [ethylbenzene] | 0% | 0% | 0% | 0.0189 | 0.0233 | 0.00 | – | – | – | 0% | 12% | 0% | 0% | 12% | 0% | – | – | – | 0 | 0 | DF norm AVERAGE OR47a [1, 13]: 0; DF norm AVERAGE OR98a [2, 11]: 0; DF norm AVERAGE OR98a [2, 12]: 0.1169; DF norm AVERAGE OR98a [2, 13]: 0
CCCCCCCO [1-heptanol] | 0% | 0% | 0% | 0.00 | 0.00 | 0.0219 | 0 | 0 | 0 | 4% | 5% | 0% | 0% | 5% | 0% | 0 | 0.05219 | 0 | – | – | –
